# Test results as given in patent US20250223303A1, “TRICYCLIC BORONIC ACID DERIVATIVE, AND PREPARATION METHOD THEREFOR AND APPLICATION THEREOF” (priority 2021, published 2025).
# Legend:
# VIM-2 = target: T1, VIM-2 (Escherichia coli, UniProt Q5U7L7); test: Enzyme activity test (FC5 fluorescent substrate), VIM-2; format: biochemical; conditions: enzyme 25 pM, substrate FC5 20 μM
# T1 construct: purchased GenScript Biotech Co., Ltd
# Method: (§1) Compound stock solution: the compound was prepared as a 50 mM DMSO stock solution. […] After aliquoting, the compound stock solutions were stored at −20° C.
# (§2) Preparation and storage of antibiotic substrate stock solution: antibiotic fluorescent substrate FC5 was synthesized internally and prepared as a 2 mM stock solution, which was stored at −20° C. after aliquoting.
# (§3) Storage of β-lactamases: each […] was synthesized by GenScript Biotech Co., Ltd., and stored at −80° C. after aliquoting to avoid repeated freezing and thawing.
# (§4) Preparation of enzyme activity reaction buffer: SBL buffer: PBS pH 7.4, 0.01% (v/v) Triton X-100; MBL buffer: 50 Mm HEPES in PBS pH 7.2, 1 μM ZnSO4, 1 μg/mL BSA, 0.010% v/v Triton X-100
# (§5) a) The compound to be tested and buffer were taken out and warmed to room temperature.
# (§6) b) Each compound was diluted with DMSO and buffer to the initial experimental concentration (Table 2), and then the compound was diluted 3-fold for a total of 10 concentrations.
# (§7) c) Diluted compounds were added to wells 1 to 20 of a 384-well black plate at 2 replicate wells per concentration, 5 μL per well. 5 µL of DMSO was added to wells 21 to 24.
# (§8) d) Each enzyme was diluted to the experimental concentration (Table 2) in SBL and MBL buffers, and finally 35 μL/well was added, with a total of 22 wells. 35 μL buffer was added to wells 23 to 24. Wells 21 to well 22 served as the maximum test values (Max), while wells 23 to 24 were designated as the minimum test values (Min).
# (§9) e) The 384-well plate was centrifuged quickly and incubated for 10 minutes at room temperature.
# (§10) f) The antibiotic substrate FC5 was diluted in buffer to the experimental concentration of each enzyme (Table 2).
# (§11) g) The incubated 384-well plate was taken out and FC-5 was added to wells […]. The 384-well plate was centrifuged rapidly and promptly transferred to a microplate reader for reading.
# (§12) h) The fluorescence intensity was measured at 355 nm excitation light/460 nm emission light in the microplate reader, and the fluorescence intensity was measured every three minutes for a total of 10 measurements.
# (§13) Initial velocity of enzyme reaction V: Subtract the background reading (Min wells) without enzyme from each fluorescence intensity reading, and then perform on a linear regression analysis on each compound concentration group. The slope is the initial velocity of enzyme reaction (V) at each compound concentration.
# (§14) Dose-effect curve and IC50 calculation of compounds: The initial velocity of enzyme reaction under the effect of each concentration of compounds was subjected to nonlinear regression fitting. The IC50 (half-maximal inhibitory concentration) of each compound was calculated using the formula […] (Vi: the initial velocity of enzyme reaction at each compound concentration; V0: initial velocity of enzyme reaction without the compound (Max wells). The software used was Graphpad prism 8.
# CTX-M-15 = target: T2, CTX-M-15 (Escherichia coli, UniProt Q9EXV5); test: Enzyme activity test (FC5 fluorescent substrate), CTX-M-15; format: biochemical; conditions: enzyme 45 pM, substrate FC5 50 μM
# T2 construct: purchased GenScript Biotech Co., Ltd
# Method: as §1, §2, §3, §4, §5, §6, §7, §8, §9, §10, §11, §12, §13, §14
# OXA-48 = target: T3, OXA-48 (Klebsiella pneumoniae, UniProt Q6XEC0); test: Enzyme activity test (FC5 fluorescent substrate), OXA-48; format: biochemical; conditions: enzyme 650 pM, substrate FC5 125 μM
# T3 construct: purchased GenScript Biotech Co., Ltd
# Method: as §1, §2, §3, §4, §5, §6, §7, §8, §9, §10, §11, §12, §13, §14
# [1] = test system: Escherichia coli ARLG 2829; test: MIC test of compounds in combination with antibiotics, Escherichia coli ARLG 2829; conditions: Escherichia coli ARLG-2829 NDM-5, OXA-1
# [2] = test system: Klebsiella pneumoniae ATCC BAA-2470; test: MIC test of compounds in combination with antibiotics, Klebsiella pneumoniae ATCC BAA-2470; conditions: Klebsiella pneumoniae ATCC BAA-2470 NDM-1
# T3 sequence (Q6XEC0 23-265 limits assumed): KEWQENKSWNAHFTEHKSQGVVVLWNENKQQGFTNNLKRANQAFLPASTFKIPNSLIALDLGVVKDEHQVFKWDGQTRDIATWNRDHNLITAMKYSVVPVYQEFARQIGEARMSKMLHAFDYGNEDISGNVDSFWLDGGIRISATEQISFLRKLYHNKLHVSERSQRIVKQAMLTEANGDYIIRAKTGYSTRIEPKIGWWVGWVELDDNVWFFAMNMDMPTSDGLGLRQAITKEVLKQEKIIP
# T2 sequence (Q9EXV5 entry or part of it): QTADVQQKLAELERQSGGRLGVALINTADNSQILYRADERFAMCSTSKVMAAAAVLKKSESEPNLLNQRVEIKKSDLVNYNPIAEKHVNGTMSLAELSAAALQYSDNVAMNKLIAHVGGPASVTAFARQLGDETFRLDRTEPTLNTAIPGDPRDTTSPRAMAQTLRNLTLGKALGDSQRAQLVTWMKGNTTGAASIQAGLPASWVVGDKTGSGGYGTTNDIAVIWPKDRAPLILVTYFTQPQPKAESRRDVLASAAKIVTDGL
structure (smiles),measurement,setting,value
"NCCNC1CCC(CC(=O)N[C@H]2Cc3cccc(C(=O)O)c3OB2O)CC1 (stereo partly shown) [VNRX-5133, reference compound]",IC50,VIM-2,4.4 nM
same,IC50,CTX-M-15,12.4 nM
same,IC50,OXA-48,343 nM
same,MIC,[1]; Cefepime + compound (8 μg/mL),1 µg/mL
same,MIC,[1]; Meropenem + compound (8 μg/mL),1 µg/mL
same,MIC,[2]; Cefepime + compound (8 μg/mL),1 µg/mL
same,MIC,[2]; Meropenem + compound (8 μg/mL),1 µg/mL
